# Experimental data from patent US10073103B1, “Rapid measurement of total vitamin D in blood” (Theranos, Inc., priority 2013, dated 2018).
# Like-named read-outs stand apart in the source and are kept apart here.
# Columns and labels:
# [1] = as stated in the manufacturer's product insert, b197 cites literature, cited from earlier work
# [2] = test system: antivitamin-D coated microparticles; parameters: concentration or dose not given beside the values; settings: as stated in the manufacturer's product insert; cited from earlier work
# [3] = as stated in the manufacturer's product insert; cited from earlier work
# [4] = test system: antibody to 25-hydroxy vitamin D; settings: as stated in the manufacturer's product insert; cited from earlier work
# [5] = test system: anti-25-hydroxy vitamin D antibodies (Ab5H10 and Ab2F4); experiment: Cross-reactivity test of the present competitive chemiluminescent ELISA in low BSA buffer; format: binding, sheep; settings: for Cross reactivity as potentially interfering compound (in words): final assay conditions
# Experimental: The liquid phase of the assay reaction included the sample (mixed with the sample diluent) and included the anti-vitamin-D antibodies and the alkaline phosphatase (AP) conjugate. As discussed below, in many cases mixtures of two types of anti-vitamin D antibodies were used. For example, in many cases, the anti-vitamin-D antibodies Ab5H10 and Ab2F4 were mixed into the diluted sample (final concentrations 10 ng/mL Ab5H10 and 5 ng/mL Ab2F4), and then the AP conjugate was mixed into the solution that included the sample, the sample diluent, and the anti-vitamin-D antibodies. This liquid mixture was incubated with the capture surface (anti-sheep antibody bound to UltraAvidin™-coated polystyrene).
# Vitamin D assay methods using pepsin degradation of vitamin D binding proteins at low pH were then further optimized in subsequent experiments, including experiments performed at an operating temperature of 34° C. […] This sample treatment and assay protocol consisted of a 1:5 dilution of the sample into 10 mg/mL pepsin in 100 mM citrate buffer pH 2.6, followed by a 1:8 dilution into 50 mM TRIS pH 8.0 which brought the pH of the diluted sample to 8.0 and neutralized the pepsin. Then the sheep anti-25-hydroxy vitamin D antibody was added and incubated with the sample for 10 minutes. Following addition of the anti-25-hydroxy vitamin D antibody, the 25-hydroxy vitamin D-AP conjugate was added, resulting in a final sample dilution of 1:50. The mixture was then incubated on the anti-sheep capture surface for 5 minutes, followed by a wash and 5 minute substrate incubation.
# 1. Sample was diluted 1:5 into 100 mM Citrate buffer pH 2.6 containing 10 mg/mL pepsin and mixed (final pH 3.9) for 5 minutes at 34° C.
# 2. Treated sample was diluted a further 1:8 into 50 mM TRIS buffer pH 8.0 to permanently deactivate the pepsin, and anti-25-hydroxy vitamin D antibody in a blocking buffer was spiked in and mixed. This mixture was incubated for 10 minutes.
# 3. The AP-labeled 25-hydroxy vitamin D was added to the sample mixture and then transferred to the capture surface (biotinylated anti-sheep secondary antibody bound to UltraAvidin™-coated polystyrene) and incubated for 5 minutes.
# 4. The surface was washed six times (1 minute for each wash cycle) with 0.05% Tween20® in 50 mM TBS containing 0.05% sodium azide at pH8.0.
# 5. The washed capture surface was exposed to enzyme substrate for five minutes and the chemiluminescence was read in an automated luminometer.
# Tests were performed in order to determine whether non-target compounds could interfere with the assay results. Such tests, termed “cross-reactivity tests”, measured the change in measured 25-hydroxy vitamin D due to the presence of a non-target substance by comparing the value of 25-hydroxy vitamin D measured by the present methods where a potentially interfering compound was in the sample, as compared to the value of 25-hydroxy vitamin D measured by the present methods in the absence of the potentially interfering compound. Cross reactivity testing was conducted using the final assay conditions in a low BSA buffer matrix (0.03% BSA in TBS). Cross-reactivity was reported in these assays as % recovery=100×([measured vitamin D])/([nominal vitamin D]); [measured vitamin D] is the 25-hydroxy vitamin D concentration measured in the presence of the potentially interfering compound, and [nominal vitamin D] is the 25-hydroxy vitamin D concentration measured in the absence of the potentially interfering compound. […] (Note that an interfering compound would displace labeled 25-hydroxy vitamin D in the competition assays disclosed herein, so that the interfering compound would cause an apparent (erroneous) increase in the measured 25-hydroxy vitamin D.) For comparison, values for 25-hydroxy vitamin D3 (a direct target of the assay, and not a cross-reactant) are presented in the table.
# [6] = Reagent stability: lyophilized pepsin versus frozen aliquots, compared by vitamin D results on clinical samples; settings: 10 mg/mL, reconstituted with 100 mM citrate buffer pH 2.6
# Experimental: The stability of pepsin in frozen aliquots of aqueous pepsin solution and of dry, lyophilized pepsin (e.g., a lyophilized powder formed from an aqueous pepsin solution) was measured. Pepsin was lyophilized in containers suitable for use when reconstituted, e.g., in an automated assay device. The pepsin was provided in a solution at a concentration of 10 mg/mL and was lyophilized into the containers to obtain the final reconstituted amount and concentration equal to the concentration and amounts used in the assay methods disclosed herein. The containers of lyophilized reagent were placed into cartridges (arrays including several such containers) and the reagent was reconstituted with 100 mM citrate buffer (pH 2.6). Clinical samples were used for comparison, and the vitamin D results were calculated for both conditions based on the standard curve obtained for frozen pepsin/buffer aliquots.
# [7] = test substance 50 ng/mL, OORL = out of range - low, below the detection limit
# [8] = test substance 50 ng/mL, low BSA buffer
# [9] = test substance 100 ng/mL, OORL = out of range - low, below the detection limit
# [10] = test substance 100 ng/mL, low BSA buffer
# [11] = test substance 150 ng/mL, OORL = out of range - low, below the detection limit
# [12] = test substance 150 ng/mL, low BSA buffer (0.03% BSA in TBS)
Compound,"Vitamin D metabolite cross reactivity, IDS ELISA kit [1]","Vitamin D metabolite cross reactivity, DiaSorin Liaison 25 OH Vitamin D TOTAL [2]","Vitamin D metabolite cross reactivity, Roche Vitamin D3 (25-OH) [3]","Vitamin D metabolite cross reactivity, DiaSorin 25-Hydroxyvitamin D 125I RIA [4]","Vitamin D metabolite cross reactivity, Present Methods [5]",Cross reactivity as potentially interfering compound (in words) ([5]; low BSA buffer),"Conc., ng/mL Mean (measured 25-hydroxy vitamin D) [5, 7]","Signal, RLU Mean [5, 8]","Conc., ng/mL Mean (measured 25-hydroxy vitamin D) [5, 9]","Signal, RLU Mean [5, 10]","Conc., ng/mL Mean (measured 25-hydroxy vitamin D) [5, 11]","Signal, RLU Mean [5, 12]",also measured
"C=C1CC[C@H](O)C/C1=C/C=C1\CCC[C@]2(C)[C@@H]([C@H](C)/C=C/[C@H](C)C(C)(C)O)CC[C@@H]12 [25(OH) D2, 25-hydroxy vitamin D2]",75%,104%,<10%,100%,110%,–,–,–,–,–,–,–,"Vitamin D metabolite cross reactivity, IDS ELISA kit ([1]; listed as 25-hydroxy Vitamin D2): 75%"
"C=C1CCC(O)C/C1=C\C=C1\CCCC2(C)C1CCC2C(C)CCC(O)C(C)(C)O (stereo not drawn) [24,25-Dihydroxy Vitamin D3, 24,25-dihydroxy vitamin D3]",>100%,–,–,–,–,No cross reactivity,OORL,25059 RLU,OORL,23735 RLU,OORL,22992 RLU,–
"C=C1/C(=C\C=C2/CCC[C@]3(C)[C@@H]([C@H](C)CCCC(C)(C)O)CC[C@@H]23)C[C@@H](O)C[C@@H]1O [1α,25-Dihydroxy Vitamin D3, 1α,25-dihydroxy vitamin D3]",–,17%,up to 100%,11%,70%,Some cross reactivity,36.5 ng/mL,7804 RLU,60.6 ng/mL,3642 RLU,107.1 ng/mL,2352 RLU,% Recovery ([5]; test substance 50 ng/mL): 73%; % Recovery ([5]; test substance 100 ng/mL): 61%; % Recovery ([5]; test substance 150 ng/mL): 71%
"C=C1/C(=C\C=C2/CCC[C@]3(C)[C@@H]([C@H](C)/C=C/[C@H](C)C(C)(C)O)CC[C@@H]23)C[C@@H](O)C[C@@H]1O [1.25(OH)2 D2, 1,25-dihydroxy vitamin D2]",–,40%,–,11%,–,–,–,–,–,–,–,–,–
"C=C1CC[C@H](O)C/C1=C/C=C1\CCC[C@]2(C)[C@@H]([C@H](C)/C=C/[C@H](C)C(C)C)CC[C@@H]12 [Ergocalciferol (Vitamin D2), ergocalciferol]",<0.3%,<1%,<1%,0.8%,<0.01%,No cross reactivity,OORL,30040 RLU,OORL,27040 RLU,OORL,30935 RLU,–
pepsin: porcine gastric mucosa pepsin (Sigma catalog # P7000),–,–,–,–,–,–,–,–,–,–,–,–,Stability: results with lyophilized reagent versus (thawed) frozen aliquot [6]: no significant differences
"C=C1CC[C@H](O)C/C1=C/C=C1\CCC[C@]2(C)[C@@H]([C@H](C)CCCC(C)C)CC[C@@H]12 [Cholecalciferol (Vitamin D3), cholecalciferol]",<0.01%,<1%,<1%,0.8%,<0.01%,No cross reactivity,OORL,31046 RLU,OORL,30864 RLU,OORL,31607 RLU,–
"C=C1CC[C@H](O)C/C1=C/C=C1\CCC[C@]2(C)[C@@H]([C@H](C)CCCC(C)(C)O)CC[C@@H]12 [25-Hydroxy vitamin D3, 25-hydroxy vitamin D3]",100%,100%,100%,100%,100%,–,55.5 ng/mL,4044 RLU,76.5 ng/mL,2941 RLU,104.5 ng/mL,2432 RLU,"% Recovery ([5]; test substance 10 ng/mL): 110%; Conc., ng/mL Mean (measured 25-hydroxy vitamin D) ([5]; test substance 10 ng/mL): 11.0 ng/mL; Signal, RLU Mean ([5]; test substance 10 ng/mL, low BSA buffer): 20071 RLU; % Recovery ([5]; test substance 25 ng/mL): 83%; Conc., ng/mL Mean (measured 25-hydroxy vitamin D) ([5]; test substance 25 ng/mL): 20.8 ng/mL; Signal, RLU Mean ([5]; test substance 25 ng/mL, low BSA buffer): 14076 RLU; % Recovery ([5]; test substance 50 ng/mL): 111%; % Recovery ([5]; test substance 100 ng/mL): 77%; % Recovery ([5]; test substance 150 ng/mL): 70%"
